In patent US20260167620A1, “MULTIFUNCTIONAL COMPOUND CAPABLE OF DEGRADING BTK KINASE, AND COMPOSITION AND USE” (HANGZHOU HEALZEN THERAPEUTICS CO., LTD., priority 2021, published 2026):

How the values were obtained:
[1] = Liver microsomal metabolic stability, human; assay type: in vitro ADME; conditions: human liver microsomes, NADPH, 37° C.
Description: (§1) Under the condition of ice bath, 1 mg of human or Mouse liver microparticles was add to PBS (1 mL) buffer, then NADPH (20 μL) was added, and incubated at 37° C. for 5 min. 10 μL of the compound to be tested was added, then suck several times with a pipette and divide into 3 aliquots of 330 μL; each and then samples were taken at 0, 15, 30, 60 and 120 min respectively. 10 μL of the solution was taken with a pipette each time and added to 490 μL of the solution containing the internal standard compound. The resulting solution was vortexed and then placed on ice, and then sampling at another time point continues. All samples were centrifuged at 10,000 rpm for 10 min, and the supernatant was taken for LC/MS testing. The metabolism of the compound in liver microsomes was calculated based on the peak area.

[2] = Liver microsomal metabolic stability, mouse; assay type: in vitro ADME; conditions: mouse liver microsomes, NADPH, 37° C.
Description: as §1

Mino cells = assay: Inhibitory activity on Mino cell proliferation (MTS); assay type: cell-based; conditions: Homo sapiens, 72 h or 168 h
Description: (§2) The anti-tumor efficacy of the compounds was tested by measuring their inhibitory effects on OCI-LY10 and Mino cell proliferation. OCI-LY10 and Mino cells were cultured in RPM-1640 medium containing […] fetal calf serum. OCI-LY10 and Mino cells were digested, inoculated in a 96-well plate at a cell concentration of 10000 cells/well, and incubated overnight at 37° C., 5% CO2. Compounds of different concentrations (1000 nM, 4-fold dilution, 8 points) were added to the 96-well plate and incubated for 72 h or 168 h at 37° C. and […], and then 20 μL of MTS was added to each well. After incubation for 2 h, 25 μl of 10% SDS was added to each well to terminate the reaction. The absorbance at 490 nm and 650 nm were measured with a microplate reader. IC50 was calculated using GraphPad Prism 5.0.

Mouse absorption test = assay type: in vivo; conditions: mice, intragastric 10 mg/kg, plasma
Description: (§3) Experimental method: mice were used as experimental animals, and drugs were administered intragastrically at 10 mg/kg (5% DMSO+5% Solutol+90% saline). The blood collection time points for intragastric administration were 0.25, 0.5, 1, 2, 4, 6, 8, and 24 h. 0.3 ml of whole blood was taken, and 0.1 ml of plasma was taken after centrifugation and analyzed by LC-MS.

BTK = molecular target: T1, BTK (Homo sapiens, UniProt Q06187); assay: BTK degradation activity test in Mino cells (Westernblot or Elisa); assay type: cell-based; conditions: 24-72 h incubation
T1 construct: endogenous in cells; host or cells: Mino cells
T1 sequence (Q06187 whole entry): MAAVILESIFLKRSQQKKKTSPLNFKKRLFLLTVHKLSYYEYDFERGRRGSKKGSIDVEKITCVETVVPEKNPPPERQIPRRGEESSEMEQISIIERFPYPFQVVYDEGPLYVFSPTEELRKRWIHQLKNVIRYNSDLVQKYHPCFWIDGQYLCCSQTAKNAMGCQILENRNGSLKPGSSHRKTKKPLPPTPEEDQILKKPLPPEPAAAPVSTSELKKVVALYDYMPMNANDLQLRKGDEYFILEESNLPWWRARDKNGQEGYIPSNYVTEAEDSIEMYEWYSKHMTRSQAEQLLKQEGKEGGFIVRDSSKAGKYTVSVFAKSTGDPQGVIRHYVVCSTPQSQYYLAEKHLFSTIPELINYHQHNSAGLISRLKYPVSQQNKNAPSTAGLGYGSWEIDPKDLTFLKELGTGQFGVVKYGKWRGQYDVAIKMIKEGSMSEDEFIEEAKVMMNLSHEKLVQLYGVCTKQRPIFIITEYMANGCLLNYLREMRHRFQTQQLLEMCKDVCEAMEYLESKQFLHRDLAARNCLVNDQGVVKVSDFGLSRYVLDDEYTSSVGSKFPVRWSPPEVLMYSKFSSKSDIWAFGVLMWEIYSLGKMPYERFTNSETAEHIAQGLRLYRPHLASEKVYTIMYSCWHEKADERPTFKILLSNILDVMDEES
Description: The Mino cell line cells are 0.5˜1 million/well in 6-well plates. The compounds are diluted to different concentrations, added to the plate, and after 24-72 h of incubation, the cells are collected. After the cells were lysed, the total protein concentration in each well was determined with a BCA kit. The amount of BTK is determined using the Westernblot or Elisa method.

OCI-LY10 cells = assay: Inhibitory activity on OCI-LY10 cell proliferation (MTS); assay type: cell-based; conditions: Homo sapiens, 72 h or 168 h
Description: as §2

Rat absorption test = assay type: in vivo; conditions: SD rats, intragastric 10 mg/kg, plasma
Description: as §3, with “SD Rats” for “Experimental method: mice”, “Solutol+90% normal” for “Solutol+90%”

| SMILES | Thalf (min) Human [1] | Thalf (min) Mouse [2] | DNAUC (Mouse absorption test) | DC50 (BTK) | IC50 (OCI-LY10 cells) | DNAUC (Rat absorption test) | IC50 (Mino cells) |
| --- | --- | --- | --- | --- | --- | --- | --- |
| NC(=O)c1nnc(N2CCCCC2)nc1Nc1ccc(N2CCC(CN3CCN(c4cc5c(cc4F)C(=O)N(C4CCC(=O)NC4=O)C5=O)CC3)CC2)c(F)c1 (stereo not shown) [Compound 045, 5-((4-(4-((4-(2-(2,6-dioxopiperidin-3-yl)-6-fluoro-1,3-dioxoisoindolin-5-yl)piperazin-1-yl)methyl)piperidin-1-yl)-3-fluorophenyl)amino)-3-(piperidin-1-yl)-1,2,4-triazine-6-carboxamide] | 38 min | 120 min | 1686 AUC (h*ng/mL)/dose (mg/kg) | < 10 nM |  | 716 AUC (h*ng/mL)/dose (mg/kg) | 3.91 nM |
| NC(=O)c1nnc(N2CCCCC2)nc1Nc1ccc(N2CCC(CN3CCN(c4cc5c(cc4F)C(=O)N(C4CCC(=O)NC4=O)C5=O)CC3)CC2)cc1 (stereo not shown) [Compound 046, 5-((4-(4-((4-(2-(2,6-dioxopiperidin-3-yl)-6-fluoro-1,3-dioxoisoindolin-5-yl)piperazin-1-yl)methyl)piperidin-1-yl)phenyl)amino)-3-(piperidin-1-yl)-1,2,4-triazine-6-carboxamide] |  |  | 1867 AUC (h*ng/mL)/dose (mg/kg) | < 10 nM |  |  |  |
| Cc1cc(N2CCC(CN3CCN(c4ccc(Nc5nc(N6CCCCC6)nnc5C(N)=O)cc4F)CC3)CC2)ccc1N1CCC(=O)NC1=O [Compound 075, 5-((4-(4-((1-(4-(2,4-dioxotetrahydropyrimidin-1(2H)-yl)-3-methylphenyl)piperidin-4-yl)methyl)piperazin-1-yl)-3-fluorophenyl)amino)-3-(piperidin-1-yl)-1,2,4-triazine-6-carboxamide] |  |  |  | < 10 nM | 0.51 nM | 1125 AUC (h*ng/mL)/dose (mg/kg) | 1.42 nM |
| NC(=O)c1nnc(N2CCCCC2)nc1Nc1ccc(N2CCN(CC3CCN(c4ccc(NC5CCC(=O)NC5=O)nc4)CC3)CC2)c(F)c1 (stereo not shown) [Compound 077, 5-((4-(4-((1-(6-((2,6-dioxopiperidin-3-yl)amino)pyridin-3-yl)piperidin-4-yl)methyl)piperazin-1-yl)-3-fluorophenyl)amino)-3-(piperidin-1-yl)-1,2,4-triazine-6-carboxamide] | 57 min | 79 min |  | < 10 nM | 1.59 nM | 285 AUC (h*ng/mL)/dose (mg/kg) |  |

The next lines start with results.

| Thalf (min) Human [1] | Thalf (min) Mouse [2] | DNAUC (Mouse absorption test) | DC50 (BTK) | IC50 (OCI-LY10 cells) | DNAUC (Rat absorption test) | SMILES | IC50 (Mino cells) |
| --- | --- | --- | --- | --- | --- | --- | --- |
| 71.37 min | 47.13 min | 2300 AUC (h*ng/mL)/dose (mg/kg) | < 10 nM | 3 nM |  | NC(=O)c1nnc(N2CCCCC2)nc1Nc1ccc(C2CCN(CC3CCN(c4ccc5c(c4)C(=O)N(C4CCC(=O)NC4=O)C5=O)C3)CC2)cc1 (stereo not shown) [Compound 001, 5-((4-(1-((1-(2-(2,6-dioxopiperidin-3-yl)-1,3-dioxoisoindolin-5-yl)pyrrolidin-3-yl)methyl)piperidin-4-yl)phenyl)amino)-3-(piperidin-1-yl)-1,2,4-triazine-6-carboxamide] | 5.5 nM |
| 120 min | 54 min | 2223 AUC (h*ng/mL)/dose (mg/kg) | < 10 nM |  | 252 AUC (h*ng/mL)/dose (mg/kg) | NC(=O)c1nnc(N2CCCCC2)nc1Nc1ccc(C2CCN(CC3CCN(c4ccc5c(c4)C(=O)N(C4CCC(=O)NC4=O)C5=O)C3)CC2)c(F)c1 (stereo not shown) [Compound 002, 5-((4-(1-((1-(2-(2,6-dioxopiperidin-3-yl)-1,3-dioxoisoindolin-5-yl)pyrrolidin-3-yl)methyl)piperidin-4-yl)-3-fluorophenyl)amino)-3-(piperidin-1-yl)-1,2,4-triazine-6-carboxamide] |  |
|  |  | 1648 AUC (h*ng/mL)/dose (mg/kg) | < 10 nM |  | 456 AUC (h*ng/mL)/dose (mg/kg) | NC(=O)c1nnc(N2CCCCC2)nc1Nc1ccc(N2CCN(CC3CCN(c4ccc5c(c4)C(=O)N(C4CCC(=O)NC4=O)C5=O)C3)CC2)c(F)c1 (stereo not shown) [Compound 003, 5-((4-(4-((1-(2-(2,6-dioxopiperidin-3-yl)-1,3-dioxoisoindolin-5-yl)pyrrolidin-3-yl)methyl)piperazin-1-yl)-3-fluorophenyl)amino)-3-(piperidin-1-yl)-1,2,4-triazine-6-carboxamide] |  |
|  |  | 1955 AUC (h*ng/mL)/dose (mg/kg) | < 10 nM |  |  | NC(=O)c1nnc(N2CCCCC2)nc1Nc1ccc(C2CCN(CC3CCN(c4ccc5c(c4)C(=O)N(C4CCC(=O)NC4=O)C5=O)CC3)CC2)c(F)c1 (stereo not shown) [Compound 007, 5-((4-(1-((1-(2-(2,6-dioxopiperidin-3-yl)-1,3-dioxoisoindolin-5-yl)piperidin-4-yl)methyl)piperidin-4-yl)-3-fluorophenyl)amino)-3-(piperidin-1-yl)-1,2,4-triazine-6-carboxamide] | 5.31 nM |
|  |  | 1941 AUC (h*ng/mL)/dose (mg/kg) | < 10 nM |  |  | NC(=O)c1nnc(N2CCCCC2)nc1Nc1ccc(N2CCC(CN3CCN(c4ccc5c(c4)C(=O)N(C4CCC(=O)NC4=O)C5=O)CC3)CC2)c(F)c1 (stereo not shown) [Compound 044, 5-((4-(4-((4-(2-(2,6-dioxopiperidin-3-yl)-1,3-dioxoisoindolin-5-yl)piperazin-1-yl)methyl)piperidin-1-yl)-3-fluorophenyl)amino)-3-(piperidin-1-yl)-1,2,4-triazine-6-carboxamide] | 3.46 nM |
